Results taken from patent US8722711B2, “Acylbenzene derivative” (Daiichi Sankyo Company, Limited, priority 2010, dated 2014).

test system: Male C57/BL6J mice; assay: Mouse oGTT (Oral Glucose Tolerance Test); format: in vivo; settings: 2 h, fasted 16 to 17 hours, compound 10 mg/kg orally 30 minutes before oral glucose load, AUC from 5 minutes before to 120 minutes after glucose, read-out: percentage decrease in plasma glucose AUC (%) compared with the negative control group
Method: Mouse oGTT (Oral Glucose Tolerance Test)
A dosing preparation (1 mg/mL of each compound) was produced by suspending in a 0.5 w/v % methyl cellulose solution and then grinding in an agate mortar. Male C57/BL6J mice (Charles River Laboratories Japan, Inc.) were purchased at 6 to 8 weeks of age, and then used at 9 to 13 weeks of age. The mice were fasted from the hours of 17:00 to 18:00 on one day before the test day, and the test was started after 16 to 17 hours-fasting. Five mice were used for each group. Before dosing a compound, blood was collected from the tail vein. Thereafter, a suspension of the compound was orally administered at a dosage of 10 mg/kg. The 0.5 w/v % methyl cellulose solution was administered to a negative control group. Twenty five minutes after dosing the compound, blood was collected from the tail vein, and then thirty minutes after dosing the compound, 30 w/v % glucose solution was orally administered at a volume of 10 mL/kg. Blood was collected from the tail vein 15, 30, 60 and 120 minutes after the glucose administration. Each of the blood samples was centrifuged to obtain the plasma, and the plasma glucose level (mg/dL) was measured with a glucose analyzer (Glucoloader GXT, A&T Corp.). The plasma glucose AUC (mg/dL min) in each mouse was calculated using the plasma glucose values at 5 minutes before and 15, 30, 60 and 120 minutes after the glucose administration. The arithmetic mean of the AUC value was calculated for each group and the percentage decrease in plasma glucose AUC (%) compared with the negative control group was calculated as an index of the efficacy.

Row | SMILES | inhibition in vivo at 10 mg/kg
1 | C[C@@H](Oc1ccc(C(=O)C2CC2)cc1)c1nc(-c2ccc(C(=O)NC3CCCC3O)c(F)c2)no1 (stereo in doubt) [Example 9, 4-(5-{(1R)-1-[4-(Cyclopropylcarbonyl)phenoxy]ethyl}-1,2,4-oxadiazol-3-yl)-2-fluoro-N-[(1R,2R)-2-hydroxycyclopentyl]benzamide] | 5 to 20%
2 | C[C@@H](Oc1ccc(C(=O)C2CC2)cc1)c1nc(-c2ccc(C(=O)NC3CCCC3O)c(F)c2)no1 (stereo in doubt) [Example 11, 4-(5-{(1R)-1-[4-(Cyclopropylcarbonyl)phenoxy]ethyl}-1,2,4-oxadiazol-3-yl)-2-fluoro-N-[(1S,2S)-2-hydroxycyclopentyl]benzamide] | 5 to 20%
3 | CC[C@@H](Oc1ccc(C(=O)C2CC2)cc1)c1nc(-c2ccc(C(=O)NC[C@H](O)CO)c(F)c2)no1 [Example 1, 4-(5-{(1R)-1-[4-(Cyclopropylcarbonyl)phenoxy]propyl}-1,2,4-oxadiazol-3-yl)-N-[(2S)-2,3-dihydroxypropyl]-2-fluorobenzamide] | > 20%
4 | CC[C@@H](Oc1ccc(C(=O)C2CC2)cc1)c1nc(-c2ccc(C(=O)N[C@@H](CO)C(N)=O)c(F)c2)no1 [Example 2, N-[(1S)-2-Amino-1-(hydroxymethyl)-2-oxoethyl]-4-(5-{(1R)-1-[4-(cyclopropylcarbonyl)phenoxy]propyl}-1,2,4-oxadiazol-3-yl)-2-fluorobenzamide] | > 20%
5 | CC[C@@H](Oc1ccc(C(=O)C2CC2)cc1)c1nc(-c2ccc(C(=O)N[C@H](C)CO)c(F)c2)no1 [Example 3, 4-(5-{(1R)-1-[4-(Cyclopropylcarbonyl)phenoxy]propyl}-1,2,4-oxadiazol-3-yl)-2-fluoro-N-[(1R)-2-hydroxy-1-methylethyl]benzamide] | 5 to 20%
6 | CC[C@@H](Oc1ccc(C(=O)C2CC2)cc1)c1nc(-c2ccc(C(=O)N[C@@H](C)CO)c(F)c2)no1 [Example 4, 4-(5-{(1R)-1-[4-(Cyclopropylcarbonyl)phenoxy]propyl}-1,2,4-oxadiazol-3-yl)-2-fluoro-N-[(1S)-2-hydroxy-1-methylethyl]benzamide] | 5 to 20%
7 | CC[C@@H](Oc1ccc(C(=O)C2CC2)cc1)c1nc(-c2ccc(C(=O)NC[C@@H](O)CO)c(F)c2)no1 [Example 5, 4-(5-{(1R)-1-[4-(Cyclopropylcarbonyl)phenoxy]propyl}-1,2,4-oxadiazol-3-yl)-N-[(2R)-2,3-dihydroxypropyl]-2-fluorobenzamide] | 5 to 20%
8 | CC[C@@H](Oc1ccc(C(=O)C2CC2)cc1)c1nc(-c2ccc(C(=O)NC(CO)CO)c(F)c2)no1 [Example 6, 4-(5-{(1R)-1-[4-(Cyclopropylcarbonyl)phenoxy]propyl}-1,2,4-oxadiazol-3-yl)-2-fluoro-N-[2-hydroxy-1-(hydroxymethyl)ethyl]benzamide] | 5 to 20%
9 | C[C@@H](Oc1ccc(C(=O)C2CC2)cc1)c1nc(-c2ccc(C(=O)NC(CO)CO)c(F)c2)no1 [Example 7, 4-(5-{(1R)-1-[4-(Cyclopropylcarbonyl)phenoxy]ethyl}-1,2,4-oxadiazol-3-yl)-2-fluoro-N-[2-hydroxy-1-(hydroxymethyl)ethyl]benzamide] | > 20%
10 | C[C@@H](CO)NC(=O)c1ccc(-c2noc([C@@H](C)Oc3ccc(C(=O)C4CC4)cc3)n2)cc1F [Example 8, 4-(5-{(1R)-1-[4-(Cyclopropylcarbonyl)phenoxy]ethyl}-1,2,4-oxadiazol-3-yl)-2-fluoro-N-[(1S)-2-hydroxy-1-methylethyl]benzamide] | 5 to 20%
11 | C[C@H](CO)NC(=O)c1ccc(-c2noc([C@@H](C)Oc3ccc(C(=O)C4CC4)cc3)n2)cc1F [Example 10, 4-(5-{(1R)-1-[4-(Cyclopropylcarbonyl)phenoxy]ethyl}-1,2,4-oxadiazol-3-yl)-2-fluoro-N-[(1R)-2-hydroxy-1-methylethyl]benzamide] | 5 to 20%
12 | CC[C@@H](Oc1ccc(C(=O)C(C)(C)C)cc1)c1nc(-c2ccc(C(=O)NC(CO)CO)c(F)c2)no1 [Example 12, 4-(5-{(1R)-1-[4-(2,2-Dimethylpropanoyl)phenoxy]propyl}-1,2,4-oxadiazol-3-yl)-2-fluoro-N-[2-hydroxy-1-(hydroxymethyl)ethyl]benzamide] | 5 to 20%
13 | CC[C@@H](Oc1ccc(C(=O)C2CCC2)cc1)c1nc(-c2ccc(C(=O)NC(CO)CO)c(F)c2)no1 [Example 13, 4-(5-{(1R)-1-[4-(Cyclobutylcarbonyl)phenoxy]propyl}-1,2,4-oxadiazol-3-yl)-2-fluoro-N-[2-hydroxy-1-(hydroxymethyl)ethyl]benzamide] | 5 to 20%
14 | CC[C@@H](Oc1ccc(C(=O)C2(F)CC2)cc1)c1nc(-c2ccc(C(=O)NC(CO)CO)c(F)c2)no1 [Example 14, 2-Fluoro-4-{5-[(1R)-1-{4-[(1-fluorocyclopropyl)carbonyl]phenoxy}propyl]-1,2,4-oxadiazol-3-yl}-N-[2-hydroxy-1-(hydroxymethyl)ethyl]benzamide] | 5 to 20%
15 | CC[C@@H](Oc1ccc(C(=O)C(C)C)cc1)c1nc(-c2ccc(C(=O)N[C@H](C)CO)c(F)c2)no1 [Example 15, 2-Fluoro-N-[(1R)-2-hydroxy-1-methylethyl]-4-{5-[(1R)-1-(4-isobutyrylphenoxy)propyl]-1,2,4-oxadiazol-3-yl}benzamide] | 5 to 20%
16 | CC[C@@H](Oc1ccc(C(=O)C(C)C)cc1)c1nc(-c2ccc(C(=O)NC(CO)CO)c(F)c2)no1 [Example 16, 2-Fluoro-N-[2-hydroxy-1-(hydroxymethyl)ethyl]-4-{5-[(1R)-1-(isobutyrylphenoxy)propyl]-1,2,4-oxadiazol-3-yl}benzamide] | 5 to 20%
17 | CC[C@@H](Oc1ccc(C(=O)C2CC2)cc1)c1nc(-c2ccc(C(=O)N[C@H](CO)CCO)c(F)c2)no1 [Example 17, 4-(5-{(1R)-1-[4-(Cyclopropylcarbonyl)phenoxy]propyl}-1,2,4-oxadiazol-3-yl)-2-fluoro-N-[(1S)-3-hydroxy-1-(hydroxymethyl)propyl]benzamide] | 5 to 20%
18 | CC[C@@H](Oc1ccc(C(=O)C2CC2)cc1)c1nc(-c2ccc(C(=O)N[C@H](C)[C@@H](O)CO)c(F)c2)no1 [Example 19, 4-(5-{(1R)-1-[4-(Cyclopropylcarbonyl)phenoxy]propyl}-1,2,4-oxadiazol-3-yl)-N-[(1R,2R)-2,3-dihydroxy-1-methylpropyl]-2-fluorobenzamide] | 5 to 20%
19 | C[C@@H](Oc1ccc(C(=O)C2CC2)cc1)c1nc(-c2ccc(C(=O)N[C@H](C)[C@@H](O)CO)c(F)c2)no1 [Example 23, 4-(5-{(1R)-1-[4-(Cyclopropylcarbonyl)phenoxy]ethyl}-1,2,4-oxadiazol-3-yl)-N-[(1R,2R)-2,3-dihydroxy-1-methylpropyl]-2-fluorobenzamide] | > 20%
